Source: patent US6506885B1, “Monoclonal antibodies to the drug tilmicosin and a method for detecting the same” (The United States of America as represented by the …, priority 2001, dated 2003)

What was measured:
[1] = bovine lung tissue; after serum levels dropped below therapeutic concentrations; cited from earlier work
[2] = system: monoclonal antibody 47-1-1; assay: competitive indirect ELISA (ciELISA) on (XII) coated plates, antibody 47-1-1; type: binding
Experimental: (§1) The supernatant culture fluid from the cloned hybridomas also may be screened to select for those producing antibodies having a high affinity for tilmicosin. Affinity may be measured using solid phase immunoassays such as ELISA, RIA, or equilibrium dialysis using labeled tilmicosin. In the preferred embodiment, affinity is measured by competitive indirect ELISA as described in the Examples, and is conducted at a final antibody concentration (dilution from the tissue culture supernatant) to give 50% of maximal binding to a tilmicosin- or 23-deoxo-23-demycinosyl tilmicosin-carrier complex coated substrate or assay well (i.e., the concentration of the antibody that results in 50% of the plateau activity in direct binding ELISA). […] Following incubation and washing, bound antibody in the wells is determined in the same manner as the db-ELISA. Percent inhibition may be calculated as (1−B/Bo)×100, where B is the optical density (OD) of a well with a competitor and Bo is the mean OD of the wells without competitor (control). […]
(§2) The cells which were positive in the initial screening and expanded were analyzed by competitive indirect ELISA (ciELISA) below for inhibition of antibody binding in the presence of free (unconjugated) tilmicosin on (XII) coated antigen plates. […]

[3] = system: monoclonal antibody 9-7-7; assay: competitive indirect ELISA (ciELISA) on (XII) coated plates, antibody 9-7-7; type: binding
Experimental: as §1, §2

[4] = system: monoclonal antibody 9-5-3; assay: competitive indirect ELISA (ciELISA) on (XII) coated plates, antibody 9-5-3; type: binding
Experimental: as §1, §2

[5] = system: monoclonal antibody 9-1-4 (Til-5); assay: competitive indirect ELISA (ciELISA) on (XII) coated plates, antibody 9-1-4; type: binding
Experimental: as §1, §2

[6] = system: monoclonal antibody 37-2-6; assay: competitive indirect ELISA (ciELISA) on (XII) coated plates, antibody 37-2-6; type: binding
Experimental: as §1, §2

[7] = system: monoclonal antibody 37-4-5 (Til-1); assay: competitive indirect ELISA (ciELISA) on (XII) coated plates, antibody 37-4-5; type: binding
Experimental: as §1, §2

[8] = (IC50 of Tilmicosin)/(IC50 of other Compound) X100, — = no cross-reactivity observed

Row | IC50, pmol/well ([2]; free compound as competitor) [pmol/well] | IC50, pmol/well ([3]; free compound as competitor) [pmol/well] | IC50, pmol/well ([4]; free compound as competitor) [pmol/well] | IC50, pmol/well ([5]; free compound as competitor) [pmol/well] | IC50, pmol/well ([6]; free compound as competitor) [pmol/well] | IC50, pmol/well ([7]; free compound as competitor) [pmol/well] | Compound | time lung concentrations exceed the P. haemolytica MIC after dosage [1] | % Competition (percentage of cross-reactivity) [2, 8] [%] | % Competition (percentage of cross-reactivity) [3, 8] [%] | % Competition (percentage of cross-reactivity) [4, 8] [%] | % Competition (percentage of cross-reactivity) [5, 8] [%] | % Competition (percentage of cross-reactivity) [6, 8] [%] | % Competition (percentage of cross-reactivity) [7, 8] [%]
1 | – | – | – | – | – | – | CCC1OC(=O)CC(O)C(C)C(OC2OC(C)C(O)C(N(C)C)C2O)C(CCN2CC(C)CC(C)C2)CC(C)C(=O)C=CC(C)=CC1COC1OC(C)C(O)C(OC)C1OC (stereo not shown) [Tilmicosin] | at least 72 hours | – | – | – | – | – | –
2 | 44.2 | 40.6 | 35.3 | 41.5 | 44.2 | 61.8 | CC1CNCC(C)C1 (stereo not shown) [3,5-dimethyl piperidine] | – | 17 | 26 | 72 | 18 | 24 | 19
